In patent US12239643B2, “Therapeutic agent for inflammatory diseases, autoimmune diseases, fibrotic diseases, and cancer diseases” (MEIJI SEIKA PHARMA CO., LTD., priority 2018, dated 2025):

System: PDE4
Assay: Evaluation of PDE4 inhibitory activity, scintillation proximity assay
Type: biochemical
Settings: scintillation proximity assay; read-out: PDE4 Inhibitory Activity (Evaluation 1; concentration for the inhibition rate of 50%)
In short: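 IC50 was derived from inhibition curves, referenced to an enzyme-free blank and a DMSO-only control. Compound, PDE4 preparation and tritiated cAMP reacted 120 min at RT in Tris-HCl buffer (pH 7.4) with MgCl2, EGTA and BSA; YSi-SPA beads with ZnSO4 bound product before scintillation counting.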

| Compound | IC50 [nM] |
| --- | --- |
| CC(O)c1cc(-c2nccs2)c2oc(N3CC4CCC(C3)N4)nc2c1OC(F)(F)F (stereo not shown) [Example 202, 1-(2-(3,8-Diazabicyclo[3.2.1]octan-3-yl)-7-(thiazol-2-yl)-4-(trifluoromethoxy)benzo[d]oxazol-5-yl)ethan-1-ol] | < 100 |
| CCC(O)c1cc(-c2nccs2)c2oc(N3CC4CCC(C3)N4)nc2c1OC(F)(F)F (stereo not shown) [Example 204, 1-(2-(3,8-Diazabicyclo[3.2.1]octan-3-yl)-7-(thiazol-2-yl)-4-(trifluoromethoxy)benzo[d]oxazol-5-yl)propan-1-ol] | < 100 |
| CC(C)C(O)c1cc(-c2nccs2)c2oc(N3CC4CCC(C3)N4)nc2c1OC(F)(F)F (stereo not shown) [Example 205, 1-(2-(3,8-Diazabicyclo[3.2.1]octan-3-yl)-7-(thiazol-2-yl)-4-(trifluoromethoxy)benzo[d]oxazol-5-yl)-2-methylpropan-1-ol] | < 100 |
| OC(c1cc(-c2nccs2)c2oc(N3CC4CCC(C3)N4)nc2c1OC(F)(F)F)C(F)F (stereo not shown) [Example 206, 1-(2-(3,8-Diazabicyclo[3.2.1]octan-3-yl)-7-(thiazol-2-yl)-4-(trifluoromethoxy)benzo[d]oxazol-5-yl)-2,2-difluoroethan-1-ol] | < 100 |
| OC(c1cc(-c2nccs2)c2oc(N3CC4CC(C3)N4)nc2c1OC(F)(F)F)C(F)F (stereo not shown) [Example 207, 1-(2-(3,6-Diazabicyclo[3.1.1]heptan-3-yl)-7-(thiazol-2-yl)-4-(trifluoromethoxy)benzo[d]oxazol-5-yl)-2,2-difluoroethan-1-ol] | < 100 |
| COC(c1cc(-c2nccs2)c2oc(N3CC4CCC(C3)N4)nc2c1OC(F)(F)F)C(F)F (stereo not shown) [Example 209, 2-(3,8-Diazabicyclo[3.2.1]octan-3-yl)-5-(2,2-difluoro-1-methoxyethyl)-7-(thiazol-2-yl)-4-(trifluoromethoxy)benzo[d]oxazole] | < 100 |
| COC(C)c1cc(-c2nccs2)c2oc(N3CC4CCC(C3)N4)nc2c1OC(F)(F)F (stereo not shown) [Example 210, 2-(3,8-Diazabicyclo[3.2.1]octan-3-yl)-5-(1-methoxyethyl)-7-(thiazol-2-yl)-4-(trifluoromethoxy)benzo[d]oxazole] | < 100 |
| COC(C)c1cc(-c2nccs2)c2oc(N3CC4CC(C3)N4)nc2c1OC(F)(F)F (stereo not shown) [Example 211, 2-(3,6-Diazabicyclo[3.1.1]heptan-3-yl)-5-(1-methoxyethyl)-7-(thiazol-2-yl)-4-(trifluoromethoxy)benzo[d]oxazole] | < 100 |
| CC(=O)c1cc(-c2nccs2)c2oc(N3CC4CCC(C3)N4)nc2c1OC(F)(F)F [Example 213, 1-(2-(3,8-Diazabicyclo[3.2.1]octan-3-yl)-7-(thiazol-2-yl)-4-(trifluoromethoxy)benzo[d]oxazol-5-yl)ethan-1-one] | < 100 |
| COC(C)(c1cc(-c2nccs2)c2oc(N3CC4CC(C3)N4)nc2c1OC(F)(F)F)C(F)(F)F (stereo not shown) [Example 214, 2-(3,6-Diazabicyclo[3.1.1]heptan-3-yl)-7-(thiazol-2-yl)-5-(1,1,1-trifluoro-2-methoxypropan-2-yl)-4-(trifluoromethoxy)benzo[d]oxazole] | < 100 |
| COC(C)(c1cc(-c2nccs2)c2oc(N3CC4CCC(C3)N4)nc2c1OC(F)(F)F)C(F)(F)F (stereo not shown) [Example 215, 2-(3,8-Diazabicyclo[3.2.1]octan-3-yl)-7-(thiazol-2-yl)-5-(1,1,1-trifluoro-2-methoxypropan-2-yl)-4-(trifluoromethoxy)benzo[d]oxazole] | < 100 |
| CC(O)(c1cc(-c2nccs2)c2oc(N3CC4CC(C3)N4)nc2c1OC(F)(F)F)C(F)(F)F (stereo not shown) [Example 216, 2-(2-(3,6-Diazabicyclo[3.1.1]heptan-3-yl)-7-(thiazol-2-yl)-4-(trifluoromethoxy)benzo[d]oxazol-5-yl)-1,1,1-trifluoropropan-2-ol] | < 100 |
| CC(O)(c1cc(-c2nccs2)c2oc(N3CC4CCC(C3)N4)nc2c1OC(F)(F)F)C(F)(F)F (stereo not shown) [Example 217, 2-(2-(3,8-Diazabicyclo[3.2.1]octan-3-yl)-7-(thiazol-2-yl)-4-(trifluoromethoxy)benzo[d]oxazol-5-yl)-1,1,1-trifluoropropan-2-ol] | < 100 |
